# Test results: the NIST ThermoML archive (doi:10.1021/je200799u)
# ± gives the expanded uncertainty stated by the source.
# Assay: refractive index (Na D-line) (dimensionless)
# Conditions: 298.15 K; 101.33 kPa; Liquid; Standard Abbe refractometry
row,refractive index,SMILES
1,1.4584 ± 0.0012,CC(=O)[O-].C[NH2+]CCO [N-methyl-2-hydroxyethylammonium acetate]
2,1.4555 ± 0.0012,CCCC(=O)[O-].C[NH2+]CCO [N-methyl-2-hydroxyethylammonium butanoate]
3,1.4563 ± 0.0012,CCCCCC(=O)[O-].C[NH2+]CCO [N-methyl-2-hydroxyethylammonium hexanoate]
4,1.4196 ± 0.0007,CCCCCCCCCCCC [dodecane]
